The experiment concerns the target T1, Glutaredoxin-1 (GRX-1) (Homo sapiens, UniProt P35754).
T1 sequence (P35754 2-106): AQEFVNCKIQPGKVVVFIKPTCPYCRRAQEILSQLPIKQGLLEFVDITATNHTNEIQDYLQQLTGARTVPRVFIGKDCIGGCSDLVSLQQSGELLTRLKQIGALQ
Briefly: time-dependent inactivation kinetics. The conditions noted are these: read-out: Ki. It counts as biochemical.

Take `CC(=O)N[C@@H](CSC(=S)Nc1ccc(NC(=S)SC[C@H](NC(C)=O)C(=O)O)cc1)C(=O)O` [2-AAPA, 2-acetylamino-3-[4-(2-acetylamino-2-carboxyethyl-sulfanylthiocarbonylamino)phenylthiocarbamoylsulfanyl]propionic acid]: the KI (inactivation) turned out to be 91.3 µM.
